Laboratory results: patent publication US9181234B2, “Antibacterial compounds” (priority 2010, dated 2015)
In brackets after ≈: the same amount, converted by molar mass.

Tests used:
[1] = tested on: Haemophilus influenzae (Isolate ID ATCC 49247); test: Antibacterial activity, MIC, H. influenzae; format: cell-based; details: Haemophilus influenzae, ATCC49247; Gram negative strain; broth microdilution or agar dilution
How it was run: (§1)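 MICs determined by broth microdilution or agar dilution according to CLSI guidelines (M7-A7).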

physchem = details: kinetic from dmso stock
How it was run: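 DMSO doubling dilutions were diluted twenty-fold into 100 mM citrate (pH 4), PBS (pH 7.4) or carbonate-bicarbonate (pH 9). After 24 h equilibration at room temperature, absorbance was read at 620 nm. The reported value is the highest concentration without measurable precipitate.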

[2] = tested on: Streptococcus pyogenes (Isolate ID ATCC 51339); test: Antibacterial activity, MIC, S. pyogenes; format: cell-based; details: Streptococcus pyogenes, ATCC51339, Gram positive strain; broth microdilution or agar dilution
How it was run: as §1

[3] = tested on: Enterococcus faecalis (Isolate ID ATCC 29212); test: Antibacterial activity, MIC, E. faecalis; format: cell-based; details: Enterococcus faecalis, ATCC29212; Gram positive strain; broth microdilution or agar dilution
How it was run: as §1

[4] = tested on: Staphylococcus aureus (Isolate ID ATCC 29213); test: Antibacterial activity, MIC, S. aureus; format: cell-based; details: Staphylococcus aureus, ATCC29213, Gram positive strain; broth microdilution or agar dilution
How it was run: as §1

[5] = pH 7.4, aqueous buffer, Solubility (pH 7.4)
[6] = pH 7.4, aqueous buffer, Solubility Range
[7] = pH 7.4, aqueous buffer, Max Solubility
[8] = pH 7.4, aqueous buffer, Solubility Range (maximum solubility)
[9] = pH 9, aqueous buffer, Max Solubility
[10] = pH 9, aqueous buffer, Solubility Range (maximum solubility)

SMILES	MIC [1]	solubility at 24 h (physchem; [5])	solubility at 24 h (physchem; [6])	MIC [2]	MIC [3]	MIC [4]	solubility at 24 h (physchem; [7])	solubility at 24 h (physchem; [8])	solubility at 24 h (physchem; [9])	solubility at 24 h (physchem; [10])
CCNC(=O)Nc1nc2cc(-c3cnc(N4CCC(C)(C(=O)O)CC4)nc3)cc(C#Cc3nccs3)c2s1 [Compound 156]	1 to 16 µg/mL (≈ 1.83 to 29.2 µM)	≥ 800 µg/mL	> 800 µg/mL	≤ 0.25 µg/mL	≤ 0.25 µg/mL	≤ 0.25 µg/mL	≥ 800 µg/mL	> 800 µg/mL	–	–
CCNC(=O)Nc1nc2cc(-c3cnc(N4CCC(C)(C(=O)O)CC4)nc3)cc(-c3ccncc3)c2s1 [Compound 89]	1 to 16 µg/mL (≈ 1.93 to 30.9 µM)	≥ 800 µg/mL	> 800 µg/mL	0.25 to 1 µg/mL (≈ 0.483 to 1.93 µM)	≤ 0.25 µg/mL	0.25 to 1 µg/mL (≈ 0.483 to 1.93 µM)	≥ 800 µg/mL	> 800 µg/mL	–	–
CCNC(=O)Nc1nc2cc(-c3cnc(N4CCC(C)(C(=O)O)CC4)nc3)cc(-c3cnc(N(C)C)s3)c2s1 [Compound 75]	1 to 16 µg/mL (≈ 1.76 to 28.2 µM)	25 µg/mL (≈ 44.1 µM)	12.5 to 400 µg/mL (≈ 22.1 to 706 µM)	0.25 to 1 µg/mL (≈ 0.441 to 1.76 µM)	≤ 0.25 µg/mL	0.25 to 1 µg/mL (≈ 0.441 to 1.76 µM)	–	–	100 µg/mL (≈ 176 µM)	12.5 to 400 µg/mL (≈ 22.1 to 706 µM)
CCNC(=O)Nc1nc2cc(-c3cnc(N4CCC(C)(C(=O)O)CC4)nc3)cc(-c3ncc(C)cc3C#N)c2s1 [Compound 65]	1 to 16 µg/mL (≈ 1.8 to 28.7 µM)	12.5 µg/mL (≈ 22.5 µM)	12.5 to 400 µg/mL (≈ 22.5 to 719 µM)	≤ 0.25 µg/mL	≤ 0.25 µg/mL	≤ 0.25 µg/mL	12.5 µg/mL (≈ 22.5 µM)	12.5 to 400 µg/mL (≈ 22.5 to 719 µM)	–	–
CCNC(=O)Nc1nc2cc(-c3cnc(N4CCC(C)(C(=O)O)CC4)nc3)cc(-c3ccnc(C#N)n3)c2s1 [Compound 44]	> 16 µg/mL	≥ 800 µg/mL	> 800 µg/mL	≤ 0.25 µg/mL	≤ 0.25 µg/mL	1 to 16 µg/mL (≈ 1.84 to 29.4 µM)	≥ 800 µg/mL	> 800 µg/mL	–	–
CCNC(=O)Nc1nc2cc(-c3cnc(N4CCC(C)(C(=O)O)CC4)nc3)cc(C3CCN(C(C)=O)CC3)c2s1 [Compound 74, 1-[5-[7-(1-acetyl-4-piperidyl)-2-(ethylcarbamoylamino)-1,3-benzothiazol-5-yl]pyrimidin-2-yl]-4-methyl-piperidine-4-carboxylic acid]	> 16 µg/mL	≥ 800 µg/mL	> 800 µg/mL	1 to 16 µg/mL (≈ 1.77 to 28.3 µM)	1 to 16 µg/mL (≈ 1.77 to 28.3 µM)	> 16 µg/mL	≥ 800 µg/mL	> 800 µg/mL	–	–
CCNC(=O)Nc1nc2cc(-c3cnc(N4CCC(C)(C(=O)O)CC4)nc3)cc(/C=N/OC)c2s1 [Compound 72, (E)-1-(5-(2-(3-ethylureido)-7-((methoxyimino)methyl)benzo[d]thiazol-5-yl)pyrimidin-2-yl)-4-methylpiperidine-4-carboxylic acid]	0.25 to 1 µg/mL (≈ 0.502 to 2.01 µM)	≥ 800 µg/mL	> 800 µg/mL	≤ 0.25 µg/mL	≤ 0.25 µg/mL	≤ 0.25 µg/mL	≥ 800 µg/mL	> 800 µg/mL	–	–
CCNC(=O)Nc1nc2cc(-c3cnc(N4CCC(C)(C(=O)O)CC4)nc3)cc(C#Cc3cnccn3)c2s1 [Compound 157]	0.25 to 1 µg/mL (≈ 0.461 to 1.84 µM)	≥ 800 µg/mL	> 800 µg/mL	≤ 0.25 µg/mL	≤ 0.25 µg/mL	≤ 0.25 µg/mL	≥ 800 µg/mL	> 800 µg/mL	–	–
CCNC(=O)Nc1nc2cc(-c3cnc(N4CCC(CC)(C(=O)O)CC4)nc3)cc(-c3cc(OC)ncn3)c2s1 [Compound 110]	0.25 to 1 µg/mL (≈ 0.444 to 1.78 µM)	≥ 800 µg/mL	> 800 µg/mL	≤ 0.25 µg/mL	≤ 0.25 µg/mL	≤ 0.25 µg/mL	≥ 800 µg/mL	> 800 µg/mL	–	–
CCNC(=O)Nc1nc2cc(-c3cnc(N4CCC(C)(C(=O)O)CC4)nc3)cc(-c3nccc(OC)c3F)c2s1 [Compound 55]	0.25 to 1 µg/mL (≈ 0.442 to 1.77 µM)	400 µg/mL (≈ 707 µM)	400 to 800 µg/mL (≈ 707 to 1410 µM)	≤ 0.25 µg/mL	≤ 0.25 µg/mL	≤ 0.25 µg/mL	–	–	≥ 800 µg/mL	> 800 µg/mL
CCNC(=O)Nc1nc2cc(-c3cnc(N4CCC(C)(C(=O)O)CC4)nc3)cc(-c3cncc(OC)n3)c2s1 [Compound 81]	1 to 16 µg/mL (≈ 1.82 to 29.2 µM)	200 µg/mL (≈ 365 µM)	12.5 to 400 µg/mL (≈ 22.8 to 729 µM)	≤ 0.25 µg/mL	≤ 0.25 µg/mL	≤ 0.25 µg/mL	–	–	400 µg/mL (≈ 729 µM)	400 to 800 µg/mL (≈ 729 to 1460 µM)
CCCC1(C(=O)O)CCN(c2ncc(-c3cc(-c4ccc(C#N)cn4)c4sc(NC(=O)NCC)nc4c3)cn2)CC1 [Compound 124]	1 to 16 µg/mL (≈ 1.75 to 28 µM)	≥ 800 µg/mL	> 800 µg/mL	≤ 0.25 µg/mL	≤ 0.25 µg/mL	≤ 0.25 µg/mL	≥ 800 µg/mL	> 800 µg/mL	–	–
CCNC(=O)Nc1nc2cc(-c3cnc(N4CCC(C)(C(=O)O)CC4)nc3)cc(C#Cc3ncccn3)c2s1 [Compound 154]	1 to 16 µg/mL (≈ 1.84 to 29.5 µM)	200 µg/mL (≈ 369 µM)	12.5 to 400 µg/mL (≈ 23 to 737 µM)	0.25 to 1 µg/mL (≈ 0.461 to 1.84 µM)	≤ 0.25 µg/mL	1 to 16 µg/mL (≈ 1.84 to 29.5 µM)	–	–	400 µg/mL (≈ 737 µM)	400 to 800 µg/mL (≈ 737 to 1470 µM)
CCNC(=O)Nc1nc2cc(-c3cnc(N4CCC(C)(C(=O)O)CC4)nc3)cc(-c3ncccc3OC)c2s1 [Compound 61]	1 to 16 µg/mL (≈ 1.83 to 29.2 µM)	≥ 800 µg/mL	> 800 µg/mL	≤ 0.25 µg/mL	≤ 0.25 µg/mL	≤ 0.25 µg/mL	≥ 800 µg/mL	> 800 µg/mL	–	–
CCNC(=O)Nc1nc2cc(-c3cnc(N4CCC(C)(C(=O)O)CC4)nc3)cc(-c3cccc(C#N)n3)c2s1 [Compound 32]	1 to 16 µg/mL (≈ 1.84 to 29.5 µM)	400 µg/mL (≈ 737 µM)	400 to 800 µg/mL (≈ 737 to 1470 µM)	≤ 0.25 µg/mL	≤ 0.25 µg/mL	≤ 0.25 µg/mL	400 µg/mL (≈ 737 µM)	400 to 800 µg/mL (≈ 737 to 1470 µM)	–	–
CCNC(=O)Nc1nc2cc(-c3cnc(N4CCC(CC)(C(=O)O)CC4)cn3)cc(-c3ccccn3)c2s1 [Compound 108]	1 to 16 µg/mL (≈ 1.88 to 30.1 µM)	≥ 800 µg/mL	> 800 µg/mL	≤ 0.25 µg/mL	≤ 0.25 µg/mL	≤ 0.25 µg/mL	≥ 800 µg/mL	> 800 µg/mL	–	–
CCNC(=O)Nc1nc2cc(-c3cnc(N4CCC(C)(C(=O)O)CC4)nc3)cc(-c3cc(C)c(F)cn3)c2s1 [Compound 85]	0.25 to 1 µg/mL (≈ 0.455 to 1.82 µM)	200 µg/mL (≈ 364 µM)	12.5 to 400 µg/mL (≈ 22.7 to 728 µM)	≤ 0.25 µg/mL	≤ 0.25 µg/mL	≤ 0.25 µg/mL	–	–	≥ 800 µg/mL	> 800 µg/mL

Other lines, results leading:

MIC [1]	solubility at 24 h (physchem; [5])	solubility at 24 h (physchem; [6])	MIC [2]	MIC [3]	MIC [4]	solubility at 24 h (physchem; [7])	solubility at 24 h (physchem; [8])	solubility at 24 h (physchem; [9])	solubility at 24 h (physchem; [10])	SMILES
1 to 16 µg/mL (≈ 1.93 to 30.9 µM)	6.25 µg/mL (≈ 12.1 µM)	< 12.5 µg/mL	0.25 to 1 µg/mL (≈ 0.483 to 1.93 µM)	0.25 to 1 µg/mL (≈ 0.483 to 1.93 µM)	0.25 to 1 µg/mL (≈ 0.483 to 1.93 µM)	–	–	–	–	CCNC(=O)Nc1nc2cc(-c3cnc(N4CCCCC4(C)C(=O)O)nc3)cc(-c3ccccn3)c2s1 (centres unmarked) [Compound 2]
> 16 µg/mL	≥ 800 µg/mL	> 800 µg/mL	0.25 to 1 µg/mL (≈ 0.448 to 1.79 µM)	1 to 16 µg/mL (≈ 1.79 to 28.7 µM)	1 to 16 µg/mL (≈ 1.79 to 28.7 µM)	–	–	–	–	CCNC(=O)Nc1nc2cc(-c3cnc(N4CCC(C(=O)O)(C(F)(F)F)C4)nc3)cc(-c3ccccn3)c2s1 (centres unmarked) [Compound 164]
1 to 16 µg/mL (≈ 1.93 to 30.9 µM)	≥ 800 µg/mL	> 800 µg/mL	≤ 0.25 µg/mL	≤ 0.25 µg/mL	≤ 0.25 µg/mL	–	–	–	–	CCNC(=O)Nc1nc2cc(-c3cnc(N4CCC(C)(C(=O)O)CC4)nc3)cc(-c3cnccn3)c2s1 [Compound 11]
1 to 16 µg/mL (≈ 1.71 to 27.3 µM)	≥ 800 µg/mL	> 800 µg/mL	≤ 0.25 µg/mL	≤ 0.25 µg/mL	0.25 to 1 µg/mL (≈ 0.427 to 1.71 µM)	≥ 800 µg/mL	> 800 µg/mL	–	–	CCNC(=O)Nc1nc2cc(-c3cnc(N4CCC(CC(F)(F)F)(C(=O)O)CC4)nc3)cc(-c3ccccn3)c2s1 [Compound 140]
1 to 16 µg/mL (≈ 1.88 to 30 µM)	≥ 800 µg/mL	> 800 µg/mL	≤ 0.25 µg/mL	≤ 0.25 µg/mL	≤ 0.25 µg/mL	–	–	–	–	CCNC(=O)Nc1nc2cc(-c3cnc(N4CCC(CC)(C(=O)O)CC4)nc3)cc(-c3cnccn3)c2s1 [Compound 99]
> 16 µg/mL	25 µg/mL (≈ 48.2 µM)	12.5 to 400 µg/mL (≈ 24.1 to 771 µM)	1 to 16 µg/mL (≈ 1.93 to 30.9 µM)	> 16 µg/mL	> 16 µg/mL	–	–	–	–	CCNC(=O)Nc1nc2cc(-c3cnc(N4CCC(N)(C(=O)O)CC4)nc3)cc(-c3ccccn3)c2s1 [Compound 128, 4-amino-1-[5-[2-(ethylcarbamoylamino)-7-(2-pyridyl)-1,3-benzothiazol-5-yl]pyrimidin-2-yl]piperidine-4-carboxylic acid]
1 to 16 µg/mL (≈ 1.75 to 28 µM)	≥ 800 µg/mL	> 800 µg/mL	≤ 0.25 µg/mL	≤ 0.25 µg/mL	1 to 16 µg/mL (≈ 1.75 to 28 µM)	≥ 800 µg/mL	> 800 µg/mL	–	–	CCNC(=O)Nc1nc2cc(-c3cnc(N4CCC(C(=O)O)(C(F)(F)F)CC4)nc3)cc(-c3ccccn3)c2s1 [Compound 142, 1-[5-[2-(ethylcarbamoylamino)-7-(2-pyridyl)-1,3-benzothiazol-5-yl]pyrimidin-2-yl]-4-(trifluoromethyl)piperidine-4-carboxylic acid]
1 to 16 µg/mL (≈ 1.83 to 29.3 µM)	3.12 µg/mL (≈ 5.73 µM)	< 12.5 µg/mL	≤ 0.25 µg/mL	0.25 to 1 µg/mL (≈ 0.458 to 1.83 µM)	> 16 µg/mL	–	–	–	–	CCNC(=O)Nc1nc2cc(-c3cnc(N4CCC(C)(C(=O)OCC)CC4)nc3)cc(-c3ccccn3)c2s1 [Compound 171]
